The values that follow are results of earlier work, collected in US20040170688A1, “Enteric formulation of fluoxetin” (priority 2001, published 2004).

For the data set the following is noted: published literature.

As for `NCCC(Oc1ccc(C(F)(F)F)cc1)c1ccccc1` (centres unmarked) [NorFluoxetin], the elimination half-life result is reported as “very long”. For the compound `CNCCC(Oc1ccc(C(F)(F)F)cc1)c1ccccc1` (stereo not drawn) [Fluoxetin, N-Methyl-3-phenyl-3-[(α,α,α-trifluorotolyl)oxyl] propylamine], the elimination half-life result is reported as “very long”.
